Reference: ChEMBL document CHEMBL1212896, “Discovery of novel cyanodihydropyridines as potent mineralocorticoid receptor antagonists” (J Med Chem, 2010)
≈ marks a conversion by molar mass, not a printed value. Calls of active or inactive are those of the source. No cut-off for these calls is given here.

Columns and labels:
Cytochrome P450 2D6 = Cytochrome P450 2D6 (Homo sapiens, UniProt P10635); experiment: Inhibition of CYP2D6; format: ADME
Glucocorticoid receptor = biological target: T1, Glucocorticoid receptor (Homo sapiens, UniProt P04150); experiment: Antagonist activity at glucocorticoid receptor LBD expressed in human HUH7 cells coexpressing GAL4 by luciferase reporter gene assay; format: functional, cell-based, Huh-7
T1 sequence (P04150 whole entry): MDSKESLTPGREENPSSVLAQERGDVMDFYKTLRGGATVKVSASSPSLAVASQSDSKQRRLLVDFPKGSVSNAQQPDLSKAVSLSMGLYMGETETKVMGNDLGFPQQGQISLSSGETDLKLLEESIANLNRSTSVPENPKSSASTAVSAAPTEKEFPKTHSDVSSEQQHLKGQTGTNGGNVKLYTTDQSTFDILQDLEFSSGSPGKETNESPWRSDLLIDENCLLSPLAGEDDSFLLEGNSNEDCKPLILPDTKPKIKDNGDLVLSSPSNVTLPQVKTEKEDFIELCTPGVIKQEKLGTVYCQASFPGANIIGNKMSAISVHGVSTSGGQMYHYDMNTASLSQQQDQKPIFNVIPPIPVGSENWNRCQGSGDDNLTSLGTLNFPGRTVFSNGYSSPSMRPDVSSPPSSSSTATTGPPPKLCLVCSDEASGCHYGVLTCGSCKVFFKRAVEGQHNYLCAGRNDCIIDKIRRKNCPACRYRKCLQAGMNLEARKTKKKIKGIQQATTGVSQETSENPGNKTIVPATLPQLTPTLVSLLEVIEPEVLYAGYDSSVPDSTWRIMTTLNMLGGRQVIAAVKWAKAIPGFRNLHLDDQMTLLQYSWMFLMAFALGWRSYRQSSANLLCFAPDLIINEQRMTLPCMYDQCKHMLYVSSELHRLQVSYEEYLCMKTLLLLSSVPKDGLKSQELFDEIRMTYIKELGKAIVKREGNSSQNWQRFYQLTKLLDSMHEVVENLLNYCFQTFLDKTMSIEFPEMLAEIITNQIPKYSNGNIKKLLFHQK

[1] = Solubility of the compound; format: physicochemical
[2] = biological target: T2, Mineralocorticoid receptor (Homo sapiens, UniProt P08235)
T2 sequence (P08235 whole entry): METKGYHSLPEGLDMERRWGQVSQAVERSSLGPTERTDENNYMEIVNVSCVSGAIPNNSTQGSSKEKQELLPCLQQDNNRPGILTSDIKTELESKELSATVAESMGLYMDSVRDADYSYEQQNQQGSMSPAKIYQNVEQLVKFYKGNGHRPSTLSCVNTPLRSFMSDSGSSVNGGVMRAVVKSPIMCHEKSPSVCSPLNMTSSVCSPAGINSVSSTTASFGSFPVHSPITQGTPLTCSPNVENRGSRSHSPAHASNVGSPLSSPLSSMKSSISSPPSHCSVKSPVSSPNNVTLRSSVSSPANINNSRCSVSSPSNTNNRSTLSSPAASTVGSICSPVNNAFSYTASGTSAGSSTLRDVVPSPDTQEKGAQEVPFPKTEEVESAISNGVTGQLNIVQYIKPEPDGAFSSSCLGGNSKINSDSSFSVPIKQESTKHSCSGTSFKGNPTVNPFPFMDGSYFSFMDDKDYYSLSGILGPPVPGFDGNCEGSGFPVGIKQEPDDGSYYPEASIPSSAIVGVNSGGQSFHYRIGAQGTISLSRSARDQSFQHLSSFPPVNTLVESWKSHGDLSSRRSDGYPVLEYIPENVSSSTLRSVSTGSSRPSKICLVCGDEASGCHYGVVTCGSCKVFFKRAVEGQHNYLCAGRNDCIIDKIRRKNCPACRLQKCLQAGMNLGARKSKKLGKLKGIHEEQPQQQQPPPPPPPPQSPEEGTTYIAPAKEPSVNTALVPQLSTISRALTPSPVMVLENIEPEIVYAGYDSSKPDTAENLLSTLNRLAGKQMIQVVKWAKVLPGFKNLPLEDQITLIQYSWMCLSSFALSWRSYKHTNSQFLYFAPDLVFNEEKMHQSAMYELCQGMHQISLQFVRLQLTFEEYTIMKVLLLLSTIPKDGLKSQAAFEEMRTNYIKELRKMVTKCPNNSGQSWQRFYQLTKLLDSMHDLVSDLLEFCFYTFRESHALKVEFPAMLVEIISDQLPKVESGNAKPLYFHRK
Description: Antagonist activity at mineralocorticoid receptor LBD expressed in human HUH7 cells coexpressing GAL4 by luciferase reporter gene assay

Androgen receptor = biological target: T3, Androgen receptor (Homo sapiens, UniProt P10275); experiment: Antagonist activity at androgen receptor LBD expressed in human HUH7 cells coexpressing GAL4 by luciferase reporter gene assay; format: functional, cell-based, Huh-7
T3 sequence (P10275 whole entry): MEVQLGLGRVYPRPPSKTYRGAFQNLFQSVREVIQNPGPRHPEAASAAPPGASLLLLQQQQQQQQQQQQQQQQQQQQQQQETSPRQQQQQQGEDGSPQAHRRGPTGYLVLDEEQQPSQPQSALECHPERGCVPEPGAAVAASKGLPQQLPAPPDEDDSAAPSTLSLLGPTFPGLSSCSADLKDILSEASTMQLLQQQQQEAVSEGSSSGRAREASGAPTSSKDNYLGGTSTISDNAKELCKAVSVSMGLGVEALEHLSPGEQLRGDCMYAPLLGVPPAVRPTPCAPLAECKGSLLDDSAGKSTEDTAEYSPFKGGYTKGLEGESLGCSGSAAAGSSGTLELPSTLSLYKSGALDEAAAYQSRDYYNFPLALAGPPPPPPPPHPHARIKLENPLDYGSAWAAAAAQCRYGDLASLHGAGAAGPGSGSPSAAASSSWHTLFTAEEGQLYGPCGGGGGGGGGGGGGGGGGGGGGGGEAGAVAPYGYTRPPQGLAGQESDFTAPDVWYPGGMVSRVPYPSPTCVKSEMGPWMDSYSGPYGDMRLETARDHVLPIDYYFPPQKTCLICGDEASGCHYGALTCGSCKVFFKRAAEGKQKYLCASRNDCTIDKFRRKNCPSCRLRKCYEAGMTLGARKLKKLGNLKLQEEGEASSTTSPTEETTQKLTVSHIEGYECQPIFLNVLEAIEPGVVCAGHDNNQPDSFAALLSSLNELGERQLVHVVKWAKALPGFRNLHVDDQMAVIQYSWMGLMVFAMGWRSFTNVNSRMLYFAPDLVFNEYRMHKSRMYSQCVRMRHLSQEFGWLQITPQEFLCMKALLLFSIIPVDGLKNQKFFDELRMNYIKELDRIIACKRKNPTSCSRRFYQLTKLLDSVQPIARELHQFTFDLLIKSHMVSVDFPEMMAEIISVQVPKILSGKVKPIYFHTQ

Cytochrome P450 3A4 = Cytochrome P450 3A4 (Homo sapiens, UniProt P08684); experiment: Inhibition of CYP3A4; format: ADME
Cytochrome P450 3A4, sequence (P08684 whole entry): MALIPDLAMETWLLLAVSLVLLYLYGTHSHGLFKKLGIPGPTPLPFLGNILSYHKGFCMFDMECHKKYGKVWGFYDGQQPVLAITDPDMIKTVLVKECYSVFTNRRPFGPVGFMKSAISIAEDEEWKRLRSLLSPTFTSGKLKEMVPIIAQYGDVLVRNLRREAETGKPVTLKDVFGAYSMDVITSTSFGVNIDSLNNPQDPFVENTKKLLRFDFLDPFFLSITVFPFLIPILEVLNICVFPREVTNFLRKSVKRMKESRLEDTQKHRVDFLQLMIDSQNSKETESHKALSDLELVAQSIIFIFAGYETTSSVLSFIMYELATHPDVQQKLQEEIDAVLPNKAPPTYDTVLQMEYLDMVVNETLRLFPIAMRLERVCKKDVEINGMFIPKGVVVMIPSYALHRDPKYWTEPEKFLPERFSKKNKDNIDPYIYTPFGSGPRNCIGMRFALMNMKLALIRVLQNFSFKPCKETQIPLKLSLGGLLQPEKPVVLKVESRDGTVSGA

Cytochrome P450 2C9 = Cytochrome P450 2C9 (Homo sapiens, UniProt P11712); experiment: Inhibition of CYP2C9; format: ADME
Cytochrome P450 2C9, sequence (P11712 whole entry, the tested form may be a part): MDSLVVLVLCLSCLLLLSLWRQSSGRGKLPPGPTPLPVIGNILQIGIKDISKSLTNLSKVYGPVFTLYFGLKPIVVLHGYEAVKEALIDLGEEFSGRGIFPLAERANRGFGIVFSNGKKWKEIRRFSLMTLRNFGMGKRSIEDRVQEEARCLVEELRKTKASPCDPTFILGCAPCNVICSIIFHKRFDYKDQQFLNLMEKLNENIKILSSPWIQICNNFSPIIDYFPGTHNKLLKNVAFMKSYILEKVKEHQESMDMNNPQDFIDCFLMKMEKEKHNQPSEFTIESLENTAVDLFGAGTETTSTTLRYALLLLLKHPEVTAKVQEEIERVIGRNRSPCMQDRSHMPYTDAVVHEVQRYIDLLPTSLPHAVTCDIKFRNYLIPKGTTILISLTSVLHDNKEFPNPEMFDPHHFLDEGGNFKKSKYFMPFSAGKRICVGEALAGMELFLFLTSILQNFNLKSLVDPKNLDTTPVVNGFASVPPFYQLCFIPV

Progesterone receptor = biological target: T4, Progesterone receptor (Homo sapiens, UniProt P06401); experiment: Antagonist activity at progesterone receptor LBD expressed in human HUH7 cells coexpressing GAL4 by luciferase reporter gene assay; format: functional, cell-based, Huh-7
T4 sequence (P06401 whole entry): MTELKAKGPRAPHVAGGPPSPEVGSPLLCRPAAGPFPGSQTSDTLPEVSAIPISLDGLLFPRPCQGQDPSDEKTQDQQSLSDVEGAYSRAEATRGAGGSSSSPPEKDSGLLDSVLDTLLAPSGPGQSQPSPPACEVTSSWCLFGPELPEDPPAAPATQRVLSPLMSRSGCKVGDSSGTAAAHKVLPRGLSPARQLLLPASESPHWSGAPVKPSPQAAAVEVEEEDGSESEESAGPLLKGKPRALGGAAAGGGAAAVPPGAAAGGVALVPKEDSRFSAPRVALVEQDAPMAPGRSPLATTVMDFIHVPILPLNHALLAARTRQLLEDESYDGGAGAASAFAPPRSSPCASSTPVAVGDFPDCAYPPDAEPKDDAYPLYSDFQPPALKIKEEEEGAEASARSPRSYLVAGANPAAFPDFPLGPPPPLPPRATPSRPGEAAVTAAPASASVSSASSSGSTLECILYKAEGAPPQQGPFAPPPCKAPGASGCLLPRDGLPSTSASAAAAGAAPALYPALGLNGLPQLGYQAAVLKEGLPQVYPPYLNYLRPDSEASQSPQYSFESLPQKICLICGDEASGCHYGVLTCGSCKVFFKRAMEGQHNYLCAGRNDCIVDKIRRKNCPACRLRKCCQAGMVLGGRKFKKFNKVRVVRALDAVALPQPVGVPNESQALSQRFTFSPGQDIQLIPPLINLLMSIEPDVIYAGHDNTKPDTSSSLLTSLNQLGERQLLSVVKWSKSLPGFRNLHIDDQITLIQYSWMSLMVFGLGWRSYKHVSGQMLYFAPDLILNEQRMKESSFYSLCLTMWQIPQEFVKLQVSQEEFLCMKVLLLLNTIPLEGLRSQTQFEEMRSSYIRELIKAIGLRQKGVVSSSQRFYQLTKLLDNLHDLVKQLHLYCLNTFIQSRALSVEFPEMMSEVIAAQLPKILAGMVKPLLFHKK

[3] = Intrinsic clearance in rat liver microsomes; format: ADME, Microsome
Liver microsomes [4] = experiment: Metabolic stability in rat liver microsomes assessed as compound remaining; format: ADME, Microsome
Liver microsomes [5] = experiment: Metabolic stability in human liver microsomes assessed as compound remaining; format: ADME, Microsome
Rattus norvegicus [6] = experiment: Antihypertensive activity in Dahl salt-sensitive rat model assessed as decrease of systolic blood pressure at 60 mg/kg, po bid for 21 days; format: functional, organism-based; set-up: dose 60 mg/kg; conditions: Artery
Rattus norvegicus [7] = experiment: Antihypertensive activity in Dahl salt-sensitive rat model assessed as decrease of systolic blood pressure at 100 mg/kg administered with chow diet for 21 days; format: functional, organism-based; set-up: dose 100 mg/kg; conditions: Artery
Rattus norvegicus [8] = experiment: Protection of renal injury in Dahl salt-sensitive rat model assessed as reduction of urinal albumin excretion at 60 mg/kg, po bid for 21 days; format: functional, organism-based; set-up: dose 60 mg/kg

Cytochrome P450 2D6, sequence (P10635 whole entry, the tested form may be a part): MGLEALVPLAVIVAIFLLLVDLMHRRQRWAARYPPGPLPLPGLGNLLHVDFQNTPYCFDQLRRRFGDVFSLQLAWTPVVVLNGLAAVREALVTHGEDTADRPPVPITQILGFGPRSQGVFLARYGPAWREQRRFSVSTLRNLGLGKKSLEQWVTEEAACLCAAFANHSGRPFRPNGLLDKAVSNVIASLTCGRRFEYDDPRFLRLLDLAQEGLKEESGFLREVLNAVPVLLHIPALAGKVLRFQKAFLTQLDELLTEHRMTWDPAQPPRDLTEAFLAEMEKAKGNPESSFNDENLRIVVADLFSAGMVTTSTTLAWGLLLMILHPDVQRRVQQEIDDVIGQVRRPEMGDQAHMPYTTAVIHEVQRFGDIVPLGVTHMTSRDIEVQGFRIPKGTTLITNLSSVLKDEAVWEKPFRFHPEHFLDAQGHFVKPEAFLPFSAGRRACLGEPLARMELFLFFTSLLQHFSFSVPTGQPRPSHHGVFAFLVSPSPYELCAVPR

SMILES	IC50 (Cytochrome P450 2D6)	IC50 (Glucocorticoid receptor)	solubility [1]	IC50 [2]	IC50 (Androgen receptor)	IC50 (Cytochrome P450 3A4)	IC50 (Cytochrome P450 2C9)	IC50 (Progesterone receptor)	CLint scaled [3]	Stability (Liver microsomes [4])	Stability (Liver microsomes [5])	Activity (Rattus norvegicus [6])	Activity (Rattus norvegicus [7])	Activity (Rattus norvegicus [8])
COC(=O)C1=C(Cn2cnnn2)NC(C)=C(C#N)[C@H]1c1ccc(F)cc1Cl	> 10 µM	1 µM	32 µM (≈ 12.4 µg/mL)	0.052 µM	0.3 µM	> 10 µM	> 10 µM	7.2 µM	8.71 mL/min/kg					
COC(=O)C1=C(Cn2cccn2)NC(C)=C(C#N)C1c1ccc(F)cc1Cl (stereo unspecified)	> 10 µM	3.3 µM	> 5 µM	0.054 µM		1.1 µM	0.6 µM	5.5 µM		31%	2%			
COC(=O)[C@@H]1CC2=CC(=O)CC[C@]2(C)[C@@]23O[C@@H]2C[C@@]2(C)[C@@H](CC[C@@]24CCC(=O)O4)[C@H]13												Active	Active	Active
